In this experiment the target is T1, human CB2R (Homo sapiens, UniProt P34972).
T1 construct: host or cells: CHO cells
The experiment can be described thus: CB2R mediated modulation of cAMP synthesis. Format: cell-based. The following applies: for agonistic activity: found through the use of the above described assays. The method, then:
B. CB2R Mediated Modulation of cAMP Synthesis:
CHO cells expressing human CB2R (Euroscreen) were plated at a density of 5000 cells per well in 384 well plates and incubated overnight at 37° C. After removing the media, the cells were treated with test compounds diluted in stimulation buffer containing 1 mM IBMX, 0.25% BSA and 10 uM Forskolin. The assay was incubated for 30 minutes at 37° C. Cells were lysed and the cAMP concentration was measured using DiscoverX-XS cAMP kit, following the manufacturer's protocol. In this setting, agonists will decrease forskolin induced production of cAMP while inverse agonists will further increase forskolin induced production of cAMP. EC50 of agonists were calculated as follows. The maximal amount of cAMP produced by forskolin compared to the level of cAMP inhibited by 1 uM CP55940 is defined as 100%. The EC50 value of each test compound was determined as the concentration at which 50% of the forskolin-stimulated cAMP synthesis was inhibited. Data was analyzed using a four-parameter logistic model. (Model 205 of XLfit 4.0).

T1 sequence (P34972 whole entry): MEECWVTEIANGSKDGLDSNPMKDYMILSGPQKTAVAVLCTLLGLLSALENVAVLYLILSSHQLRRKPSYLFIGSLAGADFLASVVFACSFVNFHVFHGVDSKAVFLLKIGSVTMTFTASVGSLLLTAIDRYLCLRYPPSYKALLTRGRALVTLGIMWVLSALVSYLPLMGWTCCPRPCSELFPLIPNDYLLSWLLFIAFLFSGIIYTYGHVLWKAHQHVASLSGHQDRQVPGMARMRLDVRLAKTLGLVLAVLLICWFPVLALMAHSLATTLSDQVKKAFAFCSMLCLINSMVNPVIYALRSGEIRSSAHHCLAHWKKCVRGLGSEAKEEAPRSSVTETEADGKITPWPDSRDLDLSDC

For `CCCS(=O)(=O)C(C)(C)C(=O)Nc1cc(-c2cccs2)nn1C` [2-Methyl-N-(2-methyl-5-thiophen-2-yl-2H-pyrazol-3-yl)-2-(propane-1-sulfonyl)-propionamide], the agonistic activity entry was “agonistic activity”. On to `Cn1nc(-c2ccccc2)cc1NC(=O)C(C)(C)S(=O)(=O)C1CCCC1` [2-Cyclopentanesulfonyl-2-methyl-N-(2-methyl-5-phenyl-2H-pyrazol-3-yl)-propionamide], for which the agonistic activity result is recorded as “agonistic activity”. Regarding `CC(C)(C)c1cc(NC(=O)C(C)(C)S(=O)(=O)C2CCCCC2)no1` [N-(5-tert-Butyl-isoxazol-3-yl)-2-cyclohexanesulfonyl-2-methyl-propionamide], a half-maximal effect (EC50) was put at 0.2 nM and the agonistic activity entry is reported as “agonistic activity”. Consider `CC(C)(C)c1cc(NC(=O)C(C)(C)S(=O)(=O)CC2CCCCC2)on1` [N-(3-tert-Butyl-isoxazol-5-yl)-2-cyclohexylmethanesulfonyl-2-methyl-propionamide], for which the 50% effective concentration (EC50) (in general, the midpoint of the concentration-response curve) is 0.1 nM and the agonistic activity result is recorded as “agonistic activity”. Turning to `CC(C)S(=O)(=O)C(C)(C)C(=O)Nc1nc(-c2ccc(Cl)cc2)cs1` [N-[4-(4-Chloro-phenyl)-thiazol-2-yl]-2-methyl-2-(propane-2-sulfonyl)-propionamide], the EC50 was found to be 44.9 nM and the agonistic activity result was “agonistic activity”. The matching figures for `CCCS(=O)(=O)C(C)(C)C(=O)Nc1nc(C(C)(C)C)cs1` [N-(4-tert-Butyl-thiazol-2-yl)-2-methyl-2-(propane-1-sulfonyl)-propionamide]: 19.2 nM and “agonistic activity”. The matching figures for `CC(C)(C(=O)Nc1ccc(C(F)(F)F)cn1)S(=O)(=O)C1CCCCC1` [2-Cyclohexanesulfonyl-2-methyl-N-(5-trifluoromethyl-pyridin-2-yl)-propionamide]: 11.8 nM and “agonistic activity”.

Turning to `CC(C)(C)c1cc(NC(=O)C(C)(C)S(=O)(=O)C2CCCCCC2)no1` [N-(5-tert-Butyl-isoxazol-3-yl)-2-cycloheptanesulfonyl-2-methyl-propionamide], the midpoint of the response, the EC50, lay at 0.1 nM and the agonistic activity entry is given as “agonistic activity”. Consider `CCCS(=O)(=O)C(C)(C)C(=O)Nc1nc2c(s1)CCCC2` [2-Methyl-2-(propane-1-sulfonyl)-N-(4,5,6,7-tetrahydro-benzothiazol-2-yl)-propionamide], for which the agonistic activity result is recorded as “agonistic activity”. As for `Cc1sc(NC(=O)C(C)(C)S(=O)(=O)CC2CCOCC2)nc1-c1ccccc1` [2-Methyl-N-(5-methyl-4-phenyl-thiazol-2-yl)-2-(tetrahydro-pyran-4-ylmethanesulfonyl)-propionamide], the midpoint of the response, the EC50, lay at 2.5 nM and the agonistic activity result was “agonistic activity”.

Turning to `CC(C)(C)C(=O)CS(=O)(=O)C(C)(C)C(=O)Nc1cc(C(C)(C)C)on1` [N-(5-tert-Butyl-isoxazol-3-yl)-2-(3,3-dimethyl-2-oxo-butane-1-sulfonyl)-2-methyl-propionamide], the response was half-maximal at 39.8 nM (EC50) and the agonistic activity entry is on record as “agonistic activity”.

For the molecule `CC(C)S(=O)(=O)C(C)(C)C(=O)Nc1nc(-c2cccnc2)cs1` [2-Methyl-2-(propane-2-sulfonyl)-N-(4-pyridin-3-yl-thiazol-2-yl)-propionamide], the agonistic activity entry was “agonistic activity”. In the case of `CCCS(=O)(=O)C(C)(C)C(=O)Nc1cnc2ccccc2c1` [2-Methyl-2-(propane-1-sulfonyl)-N-quinolin-3-yl-propionamide], the agonistic activity entry was “agonistic activity”.

Turning to `CC(C)(C)c1cc(NC(=O)C(C)(C)S(=O)(=O)CC2CCC2)on1` [N-(3-tert-Butyl-isoxazol-5-yl)-2-cyclobutylmethanesulfonyl-2-methyl-propionamide], it took 3.7 nM to reach a half-maximal effect (EC50) and the agonistic activity result is given as “agonistic activity”. Turning to `CCCS(=O)(=O)C(C)(C)C(=O)Nc1ccc2ccccc2n1` [2-Methyl-2-(propane-1-sulfonyl)-N-quinolin-2-yl-propionamide], the agonistic activity result is “agonistic activity”.

Regarding `CC(C)(C(=O)Nc1nc(C2CCCCC2)cs1)S(=O)(=O)CC1CCOCC1` [N-(4-Cyclohexyl-thiazol-2-yl)-2-methyl-2-(tetrahydro-pyran-4-ylmethanesulfonyl)-propionamide], a half-maximal response (EC50) required 8.3 nM and the agonistic activity result is given as “agonistic activity”. `CCCS(=O)(=O)C(C)(C)C(=O)Nc1cc(C(C)(C)C)nn1C` [N-(5-tert-Butyl-2-methyl-2H-pyrazol-3-yl)-2-methyl-2-(propane-1-sulfonyl)-propionamide]: the agonistic activity result is recorded as “agonistic activity”. On to `CC(C)(C)c1cc(NC(=O)C(C)(C)S(=O)(=O)C2CCOCC2)on1` [N-(3-tert-Butyl-isoxazol-5-yl)-2-methyl-2-(tetrahydro-pyran-4-sulfonyl)-propionamide], for which a half-maximal response (EC50) required 0.1 nM and the agonistic activity entry was “agonistic activity”. For the molecule `CC(C)(C)c1cc(NC(=O)C(C)(C)S(=O)(=O)CC2CCCO2)no1` (stereo not drawn) [N-(5-tert-Butyl-isoxazol-3-yl)-2-methyl-2-(tetrahydro-furan-2-ylmethanesulfonyl)-propionamide], the EC50 amounted to 70.5 nM and the agonistic activity entry was “agonistic activity”. As to `CCCS(=O)(=O)C(C)(C)C(=O)Nc1nc(-c2ccc(Cl)cc2)cs1` [N-[4-(4-Chloro-phenyl)-thiazol-2-yl]-2-methyl-2-(propane-1-sulfonyl)-propionamide], the concentration for a half-maximal effect (EC50) was determined as 13 nM and the agonistic activity result was “agonistic activity”. For the molecule `Cn1nc(-c2ccccc2)cc1NC(=O)C(C)(C)S(=O)(=O)C1CCOCC1` [2-Methyl-N-(2-methyl-5-phenyl-2H-pyrazol-3-yl)-2-(tetrahydro-pyran-4-sulfonyl)-propionamide], the agonistic activity entry is recorded as “agonistic activity”. Still for that read-out and setting: the same measure for `CCCS(=O)(=O)C(C)(C)C(=O)Nc1nc(C(F)(F)F)cs1` [2-Methyl-2-(propane-1-sulfonyl)-N-(4-trifluoromethyl-thiazol-2-yl)-propionamide]: “agonistic activity”; for `Cn1nc(C(C)(C)C)cc1NC(=O)C(C)(C)S(=O)(=O)CC(C)(C)C` [N-(5-tert-Butyl-2-methyl-2H-pyrazol-3-yl)-2-(2,2-dimethyl-propane-1-sulfonyl)-2-methyl-propionamide]: “agonistic activity”. In the case of `CC(C)(C(=O)Nc1ccc(C(F)(F)F)cn1)S(=O)(=O)C1CCCCCC1` [2-Cycloheptanesulfonyl-2-methyl-N-(5-trifluoromethyl-pyridin-2-yl)-propionamide], the response was half-maximal at 7.1 nM (EC50) and the agonistic activity result is recorded as “agonistic activity”. In the case of `CC(C)(C(=O)Nc1nc(-c2ccc(Cl)cc2)cs1)S(=O)(=O)C1CCCC1` [N-[4-(4-Chloro-phenyl)-thiazol-2-yl]-2-cyclopentanesulfonyl-2-methyl-propionamide], the EC50 stood at 1.5 nM and the agonistic activity entry is given as “agonistic activity”. For `CC(C)(C)c1cc(NC(=O)C(C)(C)S(=O)(=O)C2CCCC2)no1` [N-(5-tert-Butyl-isoxazol-3-yl)-2-cyclopentanesulfonyl-2-methyl-propionamide], the EC50 is 2.4 nM and the agonistic activity entry is given as “agonistic activity”.
